The source of these data is patent US20240075087A1, “COMPOSITIONS AND METHODS COMPRISING HEMP EXTRACT FOR THE TREATMENT OF ANIMALS IN NEED” (Portland Technology Holdings LLC, priority 2021, published 2024).

Converted amounts (≈) assume the structure as drawn.

Series [1] concerns CMT12 cell line. Nature of the series: Annexin V-FITC apoptosis assay, CMT12. It is filed as cell-based, canine. The conditions noted are these: 15 μg/mL CBD, VC 10.9±2.0%. As for the experimental part:
Apoptosis after 4 and 8 hours treatment is measured using Annexin-V staining (Invitrogen Annexin V-FITC staining kit, Carlsbad, California). Briefly, cells are detached with Accumax (Innovative Cell Technologies, San Diego, California), collected and centrifuged for 10 m at 1000 g at 4° C. The pellet is washed once with PBS before resuspension in Annexin Binding Buffer (ABB; 10 mM HEPES, 140 mM NaCl, 2.5 mM CaCl2, pH 7.4) at a density of approximately 1×10^6 cell/mL. […] After the incubation, ABB is added to the cell suspension and kept on ice until fluorescence is measured with the BD FACScalibur flow cytometer using an argon laser (BD Biosciences, Ashland, Oregon). Ten thousand events are collected per sample. Analysis is performed with the FlowJo software (Version 10.7.1. Becton, Dickinson, Ashland, Oregon) by first gating based on the forward- and side-scatter characteristics for each cell line followed by Annexin V-FITC positive cells. Negative fluorescence controls are unstained cells. Three independent replicates are examined for each treatment.

In series [2] the test system is HMPOS osteosarcoma cell line. Nature of the series: 48 hours MTT proliferation assay, HMPOS. Particulars: pure compound. It is filed as cell-based, canine. As for the experimental part:
(§1) 3-(4,5-Dimethylthaizol-2-yl)-2,5-diphenyltetrazolium bromide (MTT) assays are performed on all previously described cell lines; CMT12, HMPOS, D17, Abrams and 17-71. […] Cells are treated with vehicle (methanol or ethanol/DMSO mix) or various concentrations of the CBD, CBDA or CBD-rich hemp extract ranging from 0.42 to 20 μg/mL in serial dilution for 48 hours. MTT assays are performed after 48 hours of treatment by adding 20 μL of MTT dye ([…] filtered 5 mg/mL in phosphate-buffered saline [PBS]) to each well and incubating at 37° C. in 5% CO2 for 2 hours. The media is then aspirated, washed once with 200 μL of PBS and then solubilized in 200 μL of ethanol. Immediate analysis of the optical density of each well is performed using a spectrophotometric plate reader (Epoch; Biotek, Winooski, Vermont) at a wavelength of 570 nm as previously described (e.g., Vega-Avila E and Pugsley M K, An overview of colorimetric assay methods used to assess survival or proliferation of mammalian cells, Proc West Pharmacol Soc., 2011, 54, pp. 10-14 which is incorporated herein by reference in its entirety). The percent proliferating cells of control for each concentration is averaged and reported as a mean+/—SD from triplicate wells over three experiments.
(§2) For CBD, CBDA and hemp extract concentrations needed to obtain a 50% inhibition of cell proliferation (IC50) are then calculated across experiments by Probit analysis using XLFit5 software (IDBS, Guildford, United Kingdom) for reporting the results for each cell line.

Series [3] has as its system 17-71 cells. Nature of the series: Trypan blue exclusion assay, 17-71. The series is classed as cell-based, canine. Particulars: 48 hours, vehicle control 3±1%. As for the experimental part: (§3) The trypan blue exclusion assay is performed on canine primary dermal fibroblasts (CDF) because of the slow rate of proliferation and low metabolic activity of these normal canine cells, precluding productive MTT assays. The effects of CBD treatments are compared with the results obtained on the 17-71, CMT12 and D17 cell lines for comparative purposes. For the CDF cells, applied cell extracellular matrix (ABM) is applied overnight to 24-well tissue culture-treated plates (Applied Biological Materials [ABM], Richmond, BC, Canada). For all cell lines, cells are plated at a density of 5×10^3 cells per well and incubated until 60% confluent before treatment with methanol vehicle control, 3.75, 7.5, and 15 μg/mL of CBD to cells for 48 hours. Cells are then trypsinized, collected and centrifuged at 1900 g for 10 minutes. With the exception of the 17-71 cell line, cells are detached with Accumax (Invitrogen, Carlsbad, California). The cell pellet is resuspended in 0.1% trypan blue (Sigma Aldrich, St Louis, Missouri) in PBS solution, loaded on a Cell Countess disposable cell counting slide with automatic counting of all positively stained cells in the Countess II Cell Counter under identical settings for each cell line (Invitrogen; ThermoFisher Scientific, Carlsbad, California) using the same parameters for each cell line. All treatments are performed in triplicate and the percent of viable cells are averaged.

The test system of series [4] is canine primary dermal fibroblasts (CDF). Briefly: Trypan blue exclusion assay, dermal fibroblasts. It is filed as cell-based. The conditions noted are these: 48 hours, vehicle control 16±3%. On the procedure:
as §3

A short description of series [5]: Single-dose oral pharmacokinetics of CBD in healthy dogs. The conditions noted are these: dog, serum. It is filed as in vivo. On the procedure:
The single-dose oral pharmacokinetics of CBD and an assessment of safety and adverse effects during 12-week administration using a hemp-based product in healthy dogs and cats were determined in this study. […] More details about this study can be found in “Deabold, K. A.; Schwark, W. S.; Wolf, L.; Wakshlag, J. J., Single Dose Pharmacokinetics and Preliminary Safety Assessment with Use of CBD-Rich Hemp Nutraceutical in Healthy Dogs and Cats, Animals 2019, 9, 832, DOI 10.3390/ani9100832,” which is incorporated herein by reference in its entirety.

Series [6] has as its system Abrams osteosarcoma cell line. Nature of the series: 48 hours MTT proliferation assay, Abrams. It is filed as cell-based, canine. The conditions noted are these: pure compound. On the procedure: as §1, §2
Background: Tetrazolium dyes change colour on reduction, which living cells bring about.

Series [7] deals with CMT12 cells. Nature of the series: Trypan blue exclusion assay, CMT12. The conditions noted are these: 48 hours, vehicle control 3±1%. The series is classed as cell-based, canine. As for the experimental part:
as §3

Where [8] appears, read: Canis lupus familiaris, read-out: IC50 (Probit).

For the molecule `C=C(C)[C@@H]1CCC(C)=C[C@H]1c1c(O)cc(CCCCC)cc1O` [CBD, cannabidiol], the “Annexin V positive staining cells” value was 15.7±2.2% in series [1] (4 hours) and 21.5±2.5% in series [1] (8 hours). Also, the figures for the IC50 in series [2] (setting [8]) and in series [6] (setting [8]) were 3.6 µg/mL (≈ 11.4 µM) and 4.1 µg/mL (≈ 13 µM), respectively. Moreover, the “concentrations that significantly diminished proliferation vs vehicle control” value in series [2] (P<0.05) and in series [6] (P<0.05) was ≥ 5 µg/mL in each case. Also, the “percent trypan blue positive cells” value in series [3] (3.75 μg/mL CBD) is 7±4%; in series [3] (7.5 μg/mL CBD), 27±8%; in series [3] (15 μg/mL CBD), 55%±6%; in series [4] (3.75 μg/mL CBD) it was 32±5%; in series [4] (7.5 μg/mL CBD) it was 58±7%; in series [4] (15 μg/mL CBD), 77±12%. Further, the “percent trypan blue positive cells” value in series [7] (3.75 μg/mL CBD) was 4±2%; in series [7] (7.5 μg/mL CBD) it was 9±3%; in series [7] (15 μg/mL CBD), 87%±8%. Moreover, in series [5] (single oral dose 2 mg/kg total CBD/CBDA (1 mg/kg CBD and 1 mg/kg CBDA), read-out: mean maximum CBD concentration (Cmax)), the Cmax was 301 ng/mL. The AUC in series [5] (single oral dose 2 mg/kg total CBD/CBDA, read-out: area under the curve (AUC)) turned out to be 1300 ng·h/mL. Also, the Tmax in series [5] (single oral dose 2 mg/kg total CBD/CBDA, read-out: time to maximal concentration (Tmax)) stood at 1.4 h.

As usually defined, the IC50 is the concentration that gives 50% inhibition. As a reminder, the AUC is concentration integrated over time.
